Molecular target: T1, HMG-CoA reductase (Homo sapiens, UniProt P04035)
T1 construct: endogenous in cells; host or cells: HepG2 (Korea Cell Line Bank)
T1 sequence (P04035 1-888): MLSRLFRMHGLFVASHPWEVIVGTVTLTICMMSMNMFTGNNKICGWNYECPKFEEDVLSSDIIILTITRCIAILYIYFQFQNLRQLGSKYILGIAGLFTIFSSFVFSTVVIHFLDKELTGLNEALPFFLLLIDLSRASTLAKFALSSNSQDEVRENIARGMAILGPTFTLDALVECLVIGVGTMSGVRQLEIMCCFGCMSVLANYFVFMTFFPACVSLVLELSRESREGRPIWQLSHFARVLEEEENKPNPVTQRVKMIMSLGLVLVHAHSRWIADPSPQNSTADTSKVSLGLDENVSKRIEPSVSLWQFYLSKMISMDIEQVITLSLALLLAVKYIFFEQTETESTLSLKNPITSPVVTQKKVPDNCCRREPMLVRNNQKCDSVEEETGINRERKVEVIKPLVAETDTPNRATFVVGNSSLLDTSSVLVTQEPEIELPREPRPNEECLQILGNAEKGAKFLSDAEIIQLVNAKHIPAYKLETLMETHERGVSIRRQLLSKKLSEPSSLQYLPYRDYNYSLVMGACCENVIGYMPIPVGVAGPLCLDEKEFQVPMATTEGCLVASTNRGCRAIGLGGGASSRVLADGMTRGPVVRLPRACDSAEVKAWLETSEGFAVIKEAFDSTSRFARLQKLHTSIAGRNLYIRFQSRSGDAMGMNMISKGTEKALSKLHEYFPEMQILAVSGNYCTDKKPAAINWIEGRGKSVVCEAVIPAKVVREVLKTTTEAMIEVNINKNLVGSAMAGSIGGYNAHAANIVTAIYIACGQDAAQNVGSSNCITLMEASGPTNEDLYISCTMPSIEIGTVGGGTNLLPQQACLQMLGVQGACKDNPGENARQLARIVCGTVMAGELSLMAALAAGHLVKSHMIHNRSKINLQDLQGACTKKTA
Experiment: HMG-CoA reductase (HMGCR) degradation in HepG2 cells by western blotting
Assay type: cell-based
Details: treated for 18 hours, ratio of HMG-CoA reductase to GAPDH, read-out: DC50
Summary of the method: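 Western blot read-out: HMGCR protein probed (1:500, 16 hours at 4° C) alongside GAPDH loading control on 15 μg BCA-normalised RIPA lysates. Lysates came from HepG2 cells (P105–P110) exposed for 18 hours to a 10-point, three-fold series starting at 3 μM.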

**Q.** How did the DC50 turn out when `C[C@H]1C=C2C=C[C@H](C)[C@H](CC[C@@H]3C[C@@H](O[Si](C)(C)C(C)(C)C)CC(=O)O3)[C@H]2[C@@H](OC(=O)NCCOCCOCCOCCNc2cccc3c2C(=O)N(C2CCC(=O)NC2=O)C3=O)C1` (stereo partly drawn) [Compound 47, (1S,3R,7S,8S,8aR)-8-(2-((2R,4R)-4-((tert-butyldimethylsilyl)oxy)-6-oxotetrahydro-2H-pyran-2-yl)ethyl)-3,7-dimethyl-1,2,3,7,8,8a-hexahydronaphthalen-1-yl (2-(2-(2-(2-((2-(2,6-dioxopiperidin-3-yl)-1,3-dioxoisoindolin-4-yl)amino)ethoxy)ethoxy)ethoxy)ethyl)carbamate] was run?
**A.** Its DC50 is less than 50 nM.

**Q.** Which DC50 does the source give for `C[C@H]1C=C2C=C[C@H](C)[C@H](CC[C@@H]3C[C@@H](O[Si](C)(C)C(C)(C)C)CC(=O)O3)[C@H]2[C@@H](OC(=O)NCCOCCOCCOCCNc2ccccc2)C1` [Compound 45, (1S,3R,7S,8S,8aR)-8-(2-((2R,4R)-4-((tert-butyldimethylsilyl)oxy)-6-oxotetrahydro-2H-pyran-2-yl)ethyl)-3,7-dimethyl-1,2,3,7,8,8a-hexahydronaphthalen-1-yl (2-(2-(2-(2-(phenylamino)ethoxy)ethoxy)ethoxy)ethyl)carbamate] here?
**A.** Its DC50 is greater than 500 nM.

**Q.** Which DC50 does the source give for `C[C@H]1C=C2C=C[C@H](C)[C@H](CC[C@@H]3C[C@@H](O)CC(=O)O3)[C@H]2[C@@H](OC(=O)C(C)(C)CCC(=O)NCCOCCOCCOCCOCCOCCOCCNc2cccc3c2C(=O)N(C2CCC(=O)NC2=O)C3=O)C1` (stereo partly drawn) [Compound 6, (1S,3R,7S,8S,8aR)-8-(2-((2R,4R)-4-hydroxy-6-oxotetrahydro-2H-pyran-2-yl)ethyl)-3,7-dimethyl-1,2,3,7,8,8a-hexahydronaphthalen-1-yl 1-((2-(2,6-dioxopiperidin-3-yl)-1,3-dioxoisoindolin-4-yl)amino)-25,25-dimethyl-22-oxo-3,6,9,12,15,18-hexaoxa-21-azahexacosan-26-oate] here?
**A.** Its DC50 is less than 50 nM.

**Q.** For `C[C@H]1C=C2C=C[C@H](C)[C@H](CC[C@@H]3C[C@@H](O)CC(=O)O3)[C@H]2[C@@H](OC(=O)NCCOCCOCCNc2cccc3c2CN(C2CCC(=O)NC2=O)C3=O)C1` (stereo partly drawn) [Compound 66, (1S,3R,7S,8S,8aR)-8-(2-((2R,4R)-4-hydroxy-6-oxotetrahydro-2H-pyran-2-yl)ethyl)-3,7-dimethyl-1,2,3,7,8,8a-hexahydronaphthalen-1-yl (2-(2-(2-((2-(2,6-dioxopiperidin-3-yl)-1-oxoisoindolin-4-yl)amino)ethoxy)ethoxy)ethyl)carbamate], which DC50 is on record?
**A.** The DC50 was less than 50 nM.

**Q.** `Cc1ncsc1-c1ccc(CNC(=O)[C@@H]2C[C@@H](O)CN2C(=O)[C@@H](NC(=O)C2(F)CC2)C(C)(C)C)c(OCCCCCCCCNC(=O)O[C@H]2C[C@@H](C)C=C3C=C[C@H](C)[C@H](CC[C@@H]4C[C@@H](O)CC(=O)O4)[C@H]32)c1` [Compound 165, (1S,3R,7S,8S,8aR)-8-(2-((2R,4R)-4-hydroxy-6-oxotetrahydro-2H-pyran-2-yl)ethyl)-3,7-dimethyl-1,2,3,7,8,8a-hexahydronaphthalen-1-yl (8-(2-(((2S,4R)-1-((S)-2-(1-fluorocyclopropane-1-carboxamido)-3,3-dimethylbutanoyl)-4-hydroxypyrrolidine-2-carboxamido)methyl)-5-(4-methylthiazol-5-yl)phenoxy)octyl)carbamate] was tested. Which DC50 did it give?
**A.** The DC50 was less than 50 nM.

**Q.** How did the DC50 turn out when `Cc1ncsc1-c1ccc(CNC(=O)[C@@H]2C[C@@H](O)CN2C(=O)[C@@H](NC(=O)COCCOCCNC(=O)CCC(C)(C)C(=O)O[C@H]2C[C@@H](C)C=C3C=C[C@H](C)[C@H](CC[C@@H]4C[C@@H](O)CC(=O)O4)[C@H]32)C(C)(C)C)cc1` [Compound 9, (S)-(1S,3R,7S,8S,8aR)-8-(2-((2R,4R)-4-hydroxy-6-oxotetrahydro-2H-pyran-2-yl)ethyl)-3,7-dimethyl-1,2,3,7,8,8a-hexahydronaphthalen-1-yl 3-((2S,4R)-4-hydroxy-2-((4-(4-methylthiazol-5-yl)benzyl)carbamoyl)pyrrolidine-1-carbonyl)-2,2,17,17-tetramethyl-5,14-dioxo-7,10-dioxa-4,13-diazaoctadecan-18-oate] was run?
**A.** Its DC50 is less than 50 nM.

**Q.** How did the DC50 turn out when `Cc1ncsc1-c1ccc(CNC(=O)[C@@H]2C[C@@H](O)CN2C(=O)[C@@H](NC(=O)C2(F)CC2)C(C)(C)C)c(OCCCCCCCCCNC(=O)O[C@H]2C[C@@H](C)C=C3C=C[C@H](C)[C@H](CC[C@@H]4C[C@@H](O)CC(=O)O4)[C@H]32)c1` [Compound 166, (1S,3R,7S,8S,8aR)-8-(2-((2R,4R)-4-hydroxy-6-oxotetrahydro-2H-pyran-2-yl)ethyl)-3,7-dimethyl-1,2,3,7,8,8a-hexahydronaphthalen-1-yl (9-(2-(((2S,4R)-1-((S)-2-(1-fluorocyclopropane-1-carboxamido)-3,3-dimethylbutanoyl)-4-hydroxypyrrolidine-2-carboxamido)methyl)-5-(4-methylthiazol-5-yl)phenoxy)nonyl)carbamate] was run?
**A.** Its DC50 is less than 50 nM.

**Q.** How did the DC50 turn out when `Cc1ncsc1-c1ccc(CNC(=O)[C@@H]2C[C@@H](O)CN2C(=O)[C@@H](NC(=O)CCCCCCCCCCNC(=O)O[C@H]2C[C@@H](C)C=C3C=C[C@H](C)[C@H](CC[C@@H]4C[C@@H](O)CC(=O)O4)[C@H]32)C(C)(C)C)cc1` [Compound 160, (1S,3R,7S,8S,8aR)-8-(2-((2R,4R)-4-hydroxy-6-oxotetrahydro-21H-pyran-2-yl)ethyl)-3,7-dimethyl-1,2,3,7,8,8a-hexahydronaphthalen-1-yl (11-(((S)-1-((2S,4R)-4-hydroxy-2-((4-(4-methylthiazol-5-yl)benzyl)carbamoyl)pyrrolidin-1-yl)-3,3-dimethyl-1-oxobutan-2-yl)amino)-11-oxoundecyl)carbamate] was run?
**A.** Its DC50 is less than 50 nM.

**Q.** For `Cc1ncsc1-c1ccc(CNC(=O)[C@@H]2C[C@@H](O)CN2C(=O)[C@@H](NC(=O)COCCOCCOCCNC(=O)O[C@H]2C[C@@H](C)C=C3C=C[C@H](C)[C@H](CC[C@@H]4C[C@@H](O[Si](C)(C)C(C)(C)C)CC(=O)O4)[C@H]32)C(C)(C)C)cc1` [Compound 20, (1S,3R,7S,8S,8aR)-8-(2-((2R,4R)-4-((tert-butyldimethylsilyl)oxy)-6-oxotetrahydro-2H-pyran-2-yl)ethyl)-3,7-dimethyl-1,2,3,7,8,8a-hexahydronaphthalen-1-yl ((S)-13-((2S,4R)-4-hydroxy-2-((4-(4-methylthiazol-5-yl)benzyl)carbamoyl)pyrrolidine-1-carbonyl)-14,14-dimethyl-11-oxo-3,6,9-trioxa-12-azapentadecyl)carbamate], which DC50 is on record?
**A.** The DC50 was less than 50 nM.

**Q.** `Cc1ncsc1-c1ccc(CNC(=O)[C@H]2C[C@H](O)CN2C(=O)[C@H](NC(=O)C2(F)CC2)C(C)(C)C)c(OCC(=O)N2CCC(CCCNC(=O)O[C@H]3C[C@@H](C)C=C4C=C[C@H](C)[C@H](CC[C@@H]5C[C@@H](O)CC(=O)O5)[C@H]43)CC2)c1` [Compound 168, (1S,3R,7S,8S,8aR)-8-(2-((2R,4R)-4-hydroxy-6-oxotetrahydro-2H-pyran-2-yl)ethyl)-3,7-dimethyl-1,2,3,7,8,8a-hexahydronaphthalen-1-yl (3-(1-(2-(2-(((2R,4S)-1-((R)-2-(1-fluorocyclopropane-1-carboxamido)-3,3-dimethylbutanoyl)-4-hydroxypyrrolidine-2-carboxamido)methyl)-5-(4-methylthiazol-5-yl)phenoxy)acetyl)piperidin-4-yl)propyl)carbamate] was tested. Which DC50 did it give?
**A.** The DC50 was less than 50 nM.

Source: patent US12479840B2, “HMG-CoA reductase degradation inducing compound” (Uppthera, priority 2020, dated 2025)
